Assay results published in patent publication US12583866B2, “Pyrido[2,3-b][1,4]oxazines or tetrahydropyrido[2,3-b][1,4]oxazepines as IAP antagonists” (BEIGENE, LTD., priority 2020, dated 2026).

Tests used:
[1] = molecular target: T1, recombinant human cIAP1-BIR3 protein (Homo sapiens, UniProt Q13490); assay: Recombinant human c-IAP1-BIR3 biochemical assay (HTRF, peptide displacement); settings: 1.2 nM cIAP1-BIR3, 3 nM AbuRPF-K(5-Fam)-NH2 peptide, read-out: Protein binding IC50 (nM) c-IAP1
T1 construct: recombinant human cIAP1-BIR3 protein; purchased Reaction biology APT-11-370
Description: I. Recombinant human c-IAP1-BIR3 biochemical assay
(§1) Compounds disclosed herein were tested for blocking of recombinant human cIAP1-BIR3 protein (Cat: APT-11-370, Reaction biology) with its peptide in an assay based on Homogeneous Time Resolved Fluorescence. 1.2 nM recombinant human cIAP1-BIR3 protein was pre-incubated with a serial dilution of compounds disclosed herein (maximum concentration is 10 uM, 4-fold serially diluted, 10 points) at room temperature for 1 hour in an assay buffer containing 20 mM HEPES, pH 7.5, 50 mM NaCl, 0.005% Tween-20, 1 mM DTT. Then 3 nM AbuRPF-K (5-Fam)-NH2 (Cat: 709702, GL Biochem) was added to plate incubated at room temperature for 1 hour. Mab Anti-6His Tb cryptate Gold (Cat: 61HI2TLB, Cisbio Bioassays) was added to plate and further incubated at room temperature for 1 hour. The HTRF signals (ex337 nm, em520 nm/490 nm) were read on BMG PHERAstar FS instrument. The inhibition percentage of cIAP1-BIR3 interaction with its peptide in presence of increasing concentrations of compounds was calculated based on the ratio of fluorescence at 520 nm to that at 490 nm. The IC50 for each compound was derived from fitting the data to the four-parameter logistic equation by Dotmatics and summarized in table 1.

[2] = molecular target: T2, recombinant human cIAP2-BIR3 protein (Homo sapiens, UniProt Q13489); assay: Recombinant human c-IAP2-BIR3 biochemical assay (HTRF, peptide displacement); settings: 3.7 nM cIAP2-BIR3, 3.7 nM AbuRPF-K(5-Fam)-NH2 peptide, read-out: Protein binding IC50 (nM) c-IAP2
T2 construct: recombinant human cIAP2-BIR3 protein; purchased Reaction biology APT-11-372
Description: II. Recombinant Human c-IAP2-BIR3 Biochemical Assay
as §1, with “human cIAP2-BIR3” for “human cIAP1-BIR3”, “(Cat: APT-11-372,” for “(Cat: APT-11-370,”, “Fluorescence. 3.7” for “Fluorescence. 1.2”, “Then 3.7” for “Then 3”, “nM AbuRPF-K(5-Fam)-NH2” for “nM AbuRPF-K (5-Fam)-NH2”, “of cIAP2-BIR3” for “of cIAP1-BIR3”

[3] = molecular target: T3, recombinant human XIAP-BIR3 protein (Homo sapiens, UniProt P98170); assay: Recombinant human XIAP-BIR3 biochemical assay (HTRF, peptide displacement); settings: 3.7 nM XIAP-BIR3, 7.6 nM AbuRPF-K(5-Fam)-NH2 peptide, read-out: Protein binding IC50 (nM) XIAP
T3 construct: recombinant human XIAP-BIR3 protein; purchased Reaction biology APT-11-374
Description: III. Recombinant Human XIAP-BIR3 Biochemical Assay
as §1, with “human XIAP-BIR3” for “human cIAP1-BIR3”, “(Cat: APT-11-374,” for “(Cat: APT-11-370,”, “Fluorescence. 3.7” for “Fluorescence. 1.2”, “Then 7.6” for “Then 3”, “nM AbuRPF-K(5-Fam)-NH2” for “nM AbuRPF-K (5-Fam)-NH2”, “of XIAP-BIR3” for “of cIAP1-BIR3”

T2 sequence (Q13489 238-349 limits assumed): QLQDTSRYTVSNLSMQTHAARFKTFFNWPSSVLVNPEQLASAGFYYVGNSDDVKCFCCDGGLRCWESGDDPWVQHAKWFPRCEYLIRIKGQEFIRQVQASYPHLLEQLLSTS
T3 sequence (P98170 241-356 limits assumed): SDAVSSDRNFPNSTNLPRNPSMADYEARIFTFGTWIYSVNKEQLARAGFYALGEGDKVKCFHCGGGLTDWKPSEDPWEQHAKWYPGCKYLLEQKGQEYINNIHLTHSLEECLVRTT
T1 sequence (Q13490 253-363 limits assumed): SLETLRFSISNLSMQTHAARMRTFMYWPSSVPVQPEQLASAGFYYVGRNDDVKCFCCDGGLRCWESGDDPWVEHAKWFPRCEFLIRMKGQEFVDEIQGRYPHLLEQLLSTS

Structure (SMILES) | IC50 [1] [nM] | IC50 [2] [nM] | IC50 [3] [nM]
C[C@@H]1CN(CC(=O)N2c3cc(Cc4ccc(F)cc4)c(C(=O)N4CCOCC4)nc3OC[C@@H]2C)[C@@H](CN2[C@H](C)COC[C@H]2C)CN1 [Example 72, 2-((2R,5R)-2-(((3R,5R)-3,5-dimethylmorpholino)methyl)-5-methylpiperazin-1-yl)-1-((S)-7-(4-fluorobenzyl)-2-methyl-6-(morpholine-4-carbonyl)-2,3-dihydro-1H-pyrido[2,3-b][1,4]oxazin-1-yl)ethan-1-one] | 0.35 | 0.42 | 7.6
C[C@@H]1CN(CC(=O)N2c3cc(Cc4ccc(F)cc4)c(CO)nc3OC[C@@H]2C)[C@@H](CN2CCOC[C@H]2CO)CN1 [Compound 54, 1-((S)-7-(4-fluorobenzyl)-6-(hydroxymethyl)-2-methyl-2,3-dihydro-1H-pyrido[2,3-b][1,4]oxazin-1-yl)-2-((2R,5R)-2-(((R)-3-(hydroxymethyl)morpholino)methyl)-5-methylpiperazin-1-yl)ethan-1-one] | 1.7 | 2.8 | 25
CC(C)OC[C@H]1COc2ncc(Cc3ccc(F)cc3)cc2N1C(=O)CN1C[C@@H](C)NC[C@@H]1CN1CCOC[C@H]1C [Compound 38, 1-((S)-7-(4-fluorobenzyl)-2-(isopropoxymethyl)-2,3-dihydro-1H-pyrido[2,3-b][1,4]oxazin-1-yl)-2-((2R,5R)-5-methyl-2-(((R)-3-methylmorpholino)methyl)piperazin-1-yl)ethan-1-one] | 0.26 | 0.83 | 49
C[C@@H]1CN(CC(=O)N2c3cc(Cc4ccc(F)cc4)cnc3OC[C@@H]2C)[C@@H](CN2[C@H](C)COC[C@H]2C)CN1 [Compound 22] | 0.13 | 0.21 | 3.97
C[C@@H]1CN(CC(=O)N2c3cc(Cc4ccc(F)cc4)c(C(=O)NCCN4CCN(C)CC4)nc3OC[C@@H]2C)[C@@H](CN2[C@H](C)COC[C@H]2C)CN1 [Compound 99, (S)-1-(2-((2R,5R)-2-(((3R,5R)-3,5-dimethylmorpholino)methyl)-5-methylpiperazin-1-yl)acetyl)-7-(4-fluorobenzyl)-2-methyl-N-(2-(4-methylpiperazin-1-yl)ethyl)-2,3-dihydro-1H-pyrido[2,3-b][1,4]oxazine-6-carboxamide] | 0.16 | 0.43 | 12.4
C[C@@H]1CN(CC(=O)N2c3cc(Cc4ccc(F)cc4)cnc3OC[C@@H]2C2CCCCC2)[C@@H](CN2CCOC[C@H]2C)CN1 [Compound 42, 1-((S)-2-cyclohexyl-7-(4-fluorobenzyl)-2,3-dihydro-1H-pyrido[2,3-b][1,4]oxazin-1-yl)-2-((2R,5R)-5-methyl-2-(((R)-3-methylmorpholino)methyl)piperazin-1-yl)ethan-1-one] | 0.34 | 0.52 | 25
C[C@@H]1CN(CC(=O)N2c3cc(Cc4ccc(F)cc4)c(OCCN4CCOCC4)nc3OC[C@@H]2C)[C@@H](CN2[C@H](C)COC[C@H]2C)CN1 [Compound 90] | 0.22 | 0.34 | 3.8
C[C@@H]1CN(CC(=O)N2c3cc(Cc4ccc(F)cc4)cnc3OC[C@@H]2C2CC2)[C@@H](CN2CCOC[C@H]2C)CN1 [Compound 26, 1-((S)-2-cyclopropyl-7-(4-fluorobenzyl)-2,3-dihydro-1H-pyrido[2,3-b][1,4]oxazin-1-yl)-2-((2R,5R)-5-methyl-2-(((R)-3-methylmorpholino)methyl)piperazin-1-yl)ethan-1-one] | 0.48 | 1.13 | 16
C[C@@H]1CN(CC(=O)N2c3cc(Cc4ccc(F)cc4)c(C(=O)N[C@@H]4CCOC4)nc3OC[C@@H]2C)[C@@H](CN2[C@H](C)COC[C@H]2C)CN1 [Example 78, (S)-1-(2-((2R,5R)-2-(((3R,5R)-3,5-dimethylmorpholino)methyl)-5-methylpiperazin-1-yl)acetyl)-7-(4-fluorobenzyl)-2-methyl-N—((R)-tetrahydrofuran-3-yl)-2,3-dihydro-1H-pyrido[2,3-b][1,4]oxazine-6-carboxamide] | 0.17 | 0.31 | 3.2
